Earlier results, collected in patent publication US20080038350A1, “LOW-DOSAGE PERORAL MEDICATION FOR CONTRACEPTION CONTAINING CRYSTALLINE DIENOGEST AND ETHINYL ESTRADIOL” (priority 2006, published 2008).

What was measured:
ovulation inhibition = settings: micronized, average particle size of about 3 μm
[1] = single dosage

Row | plasma level, average particle size 3.7 μm versus powder of 22 μm [1] | Compound | optimum dosage for reliable ovulation inhibition (ovulation inhibition)
1 |  | C[C@]12CCC3=C4CCC(=O)C=C4CC[C@H]3[C@@H]1CC[C@@]2(O)CC#N [dienogest, 17α-cyanomethyl-17β-hydroxyestra-4,9-dien-3-one] | 2 mg
2 | nearly twice as high | C[C@H]1O[C@@H](O[C@H]2[C@@H](O)C[C@H](O[C@H]3[C@@H](O)C[C@H](O[C@H]4CC[C@@]5(C)[C@H](CC[C@@H]6[C@@H]5C[C@@H](O)[C@]5(C)[C@@H](C7=CC(=O)OC7)CC[C@]65O)C4)O[C@@H]3C)O[C@@H]2C)C[C@H](O)[C@@H]1O [digoxin] | 
